Ends that are not written are not given here. Peptide text beside a SMILES is read from it.

The values below come from patent US12383598B2, “Method for treating gingivitis and gingival atrophy and repairing oral mucosa” (ADVANCED HEALTHTECH BIOPEPTIDE LABORATORIES CO., LTD, priority 2021, dated 2025).

Assay type in all cases: cell-based
For one data set, the target named is TNFα (Homo sapiens, UniProt P01375). The data set is described as follows: TNFα inhibition in L929 cells. As to conditions: for O.D. (TNFα inhibition): O.D. at 490/630 nm. The protocol: (§1) In vitro L929 cell proliferation/cytotoxicity assay was measured in a microtiter plate. L929 cells were cultured in the Eagle's minimum essential medium (EMEM) containing 10% bovine serum, 1% P/S and 1% non-essential amino acids. Converged L929 cells were washed by 2 ml of a phosphate buffer solution (PBS) and then treated with trypsin, followed by resuspension in the EMEM. 200 μl of the cell suspension were taken by suction for cell density counting, and the remaining cell suspension were centrifuged at 1500 rpm for 5 minutes. The supernatant was removed, and the EMEM was added for diluting the cells to form a final concentration of 1.5×10^5 cells/ml. 100 μl of the resultant cell suspension were added to each well of a 96-well flat-bottom microtiter plate, and then incubated at 37° C. and 5% CO2 for 24 hours.
GEKG and KTTKS were re-solved with 1× PBS to form solutions having a concentration equivalent to 1 mg GEKG/ml and 1 mg KTTKS/ml, respectively, followed by further dilution with 1× PBS to form solutions having a concentration of 500, 125, 31.25 […], respectively, and the resultant diluted solutions were mixed with a TNFα solution with an equal volume, and incubated for 1 hour. 50 μl of each of the 4 mixtures were added to the above 96-well flat-bottom microtiter plate containing L929 cells incubated for 24 hours, and actinomycin D (ActD) with a final concentration of 2 μg/ml and TNFα with a final concentration of 0.1 ng/ml were added to each well. Test wells containing 2 μg/ml ActD only and 0.1 ng/ml TNFα only were used as positive controls and blank controls, respectively. The resultant 96-well flat-bottom microtiter plate was further incubated at 37° C. and 5% CO2 for 24 hours. O.D. values at 490/630 nm were measured by a microplate reader. TNFα inhibition was calculated by the following formula: […]

Data set [1] in a line: Cytotoxicity to L929 cells (XTT). The note with it: mouse, L929 cells. Here is the method:
as §1
(§2) GEKG and KTTKS were re-solved with 1× PBS to form solutions having a concentration equivalent to 1 mg GEKG/ml and 1 mg KTTKS/ml, respectively, followed by further […], respectively. 50 μl of each of the 4 diluted solutions were added to the above 96-well flat-bottom microtiter plate containing L929 cells incubated for 24 hours, and ActD with a final concentration of 2 μg/ml was added to each well. The resultant 96-well flat-bottom microtiter plate was further incubated at 37° C. and 5% CO2 for 24 hours, followed by addition of 50 μl of 2,3-bis(2-methoxy-4-nitro-5-sulfophenyl)-5-[(phenylamino)carbonyl]-2H-tetrazolium hydroxide (XTT) to each well and further incubation for 1 hour. O.D. values at 490/630 nm were measured by a microplate reader. Cytotoxicity was calculated by the following formula: […]

In a further data set the test system is L929 cells. Briefly: Cytotoxicity to L929 cells (XTT). The note with it: for O.D. (cytotoxicity): O.D. at 490/630 nm; for Cytotoxicity to L929 cells (in words): series of dilutions. The protocol:
as §1, §2

For data set [2], the system named is macrophages. The data set is described as follows: NO production from macrophages induced by LPS. As to conditions: in vitro; FIGS. 3 and 4. The protocol: In vitro anti-inflammation of GEKG and KTTKS was evaluated by using the well-known inflammation model of NO production from macrophages induced by lipopolysaccharide (LPS).
For data set [3], the system named is macrophages. Briefly: H2O2 production from macrophages induced by LPS. The note with it: in vitro; FIG. 5. Here is the method: An ability of GEKG and KTTKS against inflammatory oxidation pressure in vitro was evaluated by using the well-known inflammation model of H2O2 production from macrophages induced by lipopolysaccharide (LPS).
Data set [4] relates to primary oral epithelial cells. Briefly: Proliferation of primary oral epithelial cells. The note with it: different concentrations, in vitro; FIG. 6.
For data set [5], the system named is primary oral epithelial cells. Briefly: Death of primary oral epithelial cells induced by free radical H2O2. The note with it: different concentrations, in vitro; FIG. 7.
Data set [6] relates to human gingival fibroblasts (HGF). Briefly: Proliferation of human gingival fibroblasts (HGF). As to conditions: different concentrations, in vitro; FIG. 8A.
The next data set concerns Type I collagen. Briefly: Gene expression of Type I collagen in human gingival fibroblasts (RT-PCR). The note with it: concentration of 0 to 40 μl, FIG. 8B. The protocol:
Production of Type I collagen in human gingival fibroblasts was observed. There is a dose-dependent relationship between expression of Type I collagen and GEKG and KTTKS in a concentration of 0 to 40 μl.

The next data set relates to TGF-β1. Briefly: Gene expression of TGF-β1 in human gingival fibroblasts (RT-PCR). The note with it: human HGF, FIG. 9A, 9B.
In another data set the test system is human HGF. Briefly: Synthesis of extracellular matrix (ECM) from human HGF. As to conditions: 50 μM KTTKS or GEKG; TGF-β1 0, 0.5 and 5 ng/ml; FIG. 10. The protocol: It is determined whether or not there exists synergism between GEKG or KTTKS and TGF-β1 in the synthesis of ECM when human HGF was treated with TGF-β1 (0.5 or 5 ng/ml) alone or in combination with KTTKS or GEKG (50 µM).
Human HGF were pre-cultured in the Dulbecco's Modified Eagle Medium (DMEM) containing 0.2% bovine serum for 24 hours, and then treated with 3 different concentrations (0, 0.5 and 5 ng/ml) of TGF-β1 for 24 hours, followed by further culturing for 24 hours in the absence of KTTKS and GEKG (solid line) or in the presence of 50 μM KTTKS or GEKG (dotted line).

TNFα, sequence (P01375 77-233 limits assumed, species assumed): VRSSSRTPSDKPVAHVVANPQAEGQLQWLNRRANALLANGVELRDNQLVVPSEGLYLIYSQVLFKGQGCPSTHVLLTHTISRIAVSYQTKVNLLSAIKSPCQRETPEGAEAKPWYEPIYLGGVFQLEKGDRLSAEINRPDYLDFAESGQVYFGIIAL

In the case of `NCCCC[C@H](NC(=O)[C@H](CCC(=O)O)NC(=O)CN)C(=O)NCC(=O)O` [GEKG] (H-GEKG-OH), the “O.D. (TNFα inhibition)” value on TNFα (GEKG dilution 1/16) was determined as 1.60; on TNFα (GEKG dilution 1/64), 0.80; at TNFα (GEKG dilution 1/256) it was 0.61; on TNFα (GEKG dilution 1/512) it was 0.56; at TNFα (GEKG dilution 1/1024) it was 0.51; on TNFα (GEKG dilution 1/2048), 0.48. Besides, the “O.D. (TNFα inhibition)” value on TNFα (GEKG dilution 1/4096) is on record as 0.51; on TNFα (GEKG dilution ¼), 2.87. Moreover, the cytotoxicity at 24 h was -12.3% in data set [1] (GEKG dilution 1/16); -2.32% in [1] (GEKG dilution 1/64); -4.61% in [1] (GEKG dilution 1/256); -1.71% in data set [1] (GEKG dilution 1/512); 0.11% in data set [1] (GEKG dilution 1/1024); 1.9% in data set [1] (GEKG dilution 1/2048). Moreover, the cytotoxicity at 24 h is -4.72% in data set [1] (GEKG dilution 1/4096) and -58.7% in data set [1] (GEKG dilution ¼). Moreover, the “O.D. (cytotoxicity)” value with L929 cells (GEKG dilution 1/16) worked out at 2.01; in the data set with L929 cells (GEKG dilution 1/64), 1.83; with L929 cells (GEKG dilution 1/256), 1.87; with L929 cells (GEKG dilution 1/512), 1.82; with L929 cells (GEKG dilution 1/1024), 1.79; in the data set with L929 cells (GEKG dilution 1/2048), 1.75. The “O.D. (cytotoxicity)” value amounted to 1.87 with L929 cells (GEKG dilution 1/4096) and 2.84 in the data set on L929 cells (GEKG dilution ¼). Besides, the “Cytotoxicity to L929 cells (in words)” value with L929 cells is on record as “does not induce cytotoxicity”. In the data set with macrophages [2], the “Inhibition of NO production from macrophages induced by LPS” value is given as “inhibit NO production from macrophages induced by LPS in a dose-dependent manner”. For the same compound, in the data set with macrophages [3], the “Inhibition of H2O2 production from macrophages induced by LPS” value is on record as “inhibit H2O2 production from macrophages induced by LPS in a dose-dependent manner”. The “Promotion of proliferation of primary oral epithelial cells” value in data set [4] is “promote proliferation of primary oral epithelial cells in vitro in a dose-dependent manner”. Also, in data set [5], the “Reduction of death of primary oral epithelial cells induced by free radical H2O2” value is recorded as “reduce death of primary oral epithelial cells induced by free radical H2O2 in vitro in a dose-dependent manner”. In data set [6], the “Effect on proliferation of HGF” value is “neither GEKG nor KTTKS in different concentrations exhibits a significant effect in promoting proliferation of HGF”. Moreover, the “Gene expression of Type I collagen” value with Type I collagen was “stimulate gene expression of Type I collagen in transcription”. In addition, the “Gene expression of TGF-β1” value with TGF-β1 is recorded as “stimulate gene expression of TGF-β1 in transcription”. Moreover, in the data set on human HGF, the “Synthesis of ECM (collagen and fibrin) from human HGF” value (from here on “Synthesis of ECM”) is listed as “exhibit a more significant ability in inducing human HGF for synthesizing ECM than TGF-β1”.
KTTKS [KTTKS]: the “O.D. (TNFα inhibition)” value was determined as 0.479 at TNFα (KTTKS 4.156 μg/ml), 0.597 at TNFα (KTTKS 16.625 μg/ml), 1.042 at TNFα (KTTKS 66.5 μg/ml) and 2.363 on TNFα (KTTKS 266 μg/ml). Further, the inhibition at 4.156 µg/mL against TNFα (L929, KTTKS 4.156 μg/ml) was determined as 10.5%. In addition, on TNFα (L929, KTTKS 16.625 μg/ml), the inhibition at 16.625 µg/mL came out at 21.1%. The inhibition at 66.5 µg/mL against TNFα (L929, KTTKS 66.5 μg/ml) worked out at 60.9%. In addition, the inhibition at 266 µg/mL on TNFα (L929, KTTKS 266 μg/ml) turned out to be 179%. Further, the cytotoxicity at 24 h, 4.156 μg/ml in [1] (KTTKS 4.156 μg/ml) was -8.3%. Further, the cytotoxicity at 24 h, 16.625 μg/ml in [1] (KTTKS 16.625 μg/ml) was -3.9%. Besides, in [1] (KTTKS 66.5 μg/ml), the cytotoxicity at 24 h, 66.5 μg/ml was -20.8%. The cytotoxicity at 24 h, 266 μg/ml in data set [1] (KTTKS 266 μg/ml) is -77.1%. The “O.D. (cytotoxicity)” value with L929 cells (KTTKS 4.156 μg/ml) amounted to 1.600; with L929 cells (KTTKS 16.625 μg/ml), 1.535; with L929 cells (KTTKS 66.5 μg/ml) it was 1.784; with L929 cells (KTTKS 266 μg/ml), 2.616. The “Cytotoxicity to L929 cells (in words)” value in the data set with L929 cells is “does not induce cytotoxicity”. Also, the “Inhibition of NO production from macrophages induced by LPS” value in the data set with macrophages [2] was “inhibit NO production from macrophages induced by LPS in a dose-dependent manner”. Besides, the “Inhibition of H2O2 production from macrophages induced by LPS” value in the data set on macrophages [3] is “inhibit H2O2 production from macrophages induced by LPS in a dose-dependent manner”. Also, the “Promotion of proliferation of primary oral epithelial cells” value in data set [4] was “promote proliferation of primary oral epithelial cells in vitro in a dose-dependent manner”. Further, the “Reduction of death of primary oral epithelial cells induced by free radical H2O2” value in data set [5] was “reduce death of primary oral epithelial cells induced by free radical H2O2 in vitro in a dose-dependent manner”. The “Effect on proliferation of HGF” value in data set [6] is recorded as “neither GEKG nor KTTKS in different concentrations exhibits a significant effect in promoting proliferation of HGF”. The “Gene expression of Type I collagen” value with Type I collagen is “stimulate gene expression of Type I collagen in transcription”. In addition, in the data set on TGF-β1, the “Gene expression of TGF-β1” value was “stimulate gene expression of TGF-β1 in transcription”. Besides, the “Synthesis of ECM” value with human HGF was “exhibit a more significant ability in inducing human HGF for synthesizing ECM than TGF-β1”.
As to “TGF-β1: tumor growth factor-β1 used at 0.5 or 5 ng/ml to treat human HGF [reference compound]”, the “Synthesis of ECM” value with human HGF is given as “up-regulate biosynthesis of ECM”.
